# Test results taken from patent US6087119A, “Method for determining the catalytic activity of factor IXa” (Roche Diagnostics GmbH, priority 1996, dated 2000).
# Columns and labels:
# [1] = target: T1, rFIXa (human) (Homo sapiens, UniProt P00740); assay: Influence of known protease inhibitors on the activity of rFIXa; format: biochemical; design: coding for the FIX protease domain from amino acid position 181 to 415; Met (ATG start codon) (N); made in house
# Description: Specific FIXa inhibitors can be identified by the inhibition of FIXa activity. For this purpose the FIXa activity is determined with a substrate of the R-D-Xxx-Gly-Arg-pNA type (Xxx=hydrophobic amino acid) in the absence and presence of the substance to be tested or of a substance mixture and the percentage inhibition is calculated from the quotients. The inhibition constant Ki is determined from the inhibition kinetics. The measurement signal is amplified by the presence of high concentrations of certain alcohols (preferably ethylene glycol).
# 200 μl buffer (100 mmol/l Tris-HCl, 100 mmol/l NaCl, 5 mmol/l CaCl2, 20-40% alcohol, pH 7-9) the buffer contains the inhibitor at various concentrations […]
# The reaction can also be terminated after 5-10 min by stopping with acetic acid (25 μl, 50%), the absorbance is determined at 405 nm against a reagent blank.
# Influence of Known Protease Inhibitors on the Activity of rFIXa Using Different pHs, Alcohols and Alcohol Concentrations 42 mmol/l Tris-HCl, pH 7.4 or 8.5 substrate MeSO2 -D-CHG-Gly-Arg-pNA (1.02 mmol/l) […]
# inhibitor at stepped concentrations (4.1-163 μmol/l)
# Known synthetic inhibitors of the 3-amidinophenylalanine type were used as inhibitors (Sturzebecher et al, J. Enzyme. Inhibition 9 (1995) 87 and WO 92/08709) (1991)). The inhibitory effect was examined at a low and at a high alcohol concentration as an example.
# [2] = target: T1, rFIXa (human); assay: Determination of the dissociation constant Ki according to DIXON, rFIXa; format: biochemical; design: coding for the FIX protease domain from amino acid position 181 to 415; Met (ATG start codon) (N); made in house; conditions: pH 8.5, 33% ethylene glycol
# Description: Determination of the Dissociation Constant Ki According to the Method of DIXON
# 42 mmol/l Tris-HCl, pH 8.5
# inhibitor in stepped concentrations (0, 20.4 and 40.8 μmol/l) […]
# 0.14 μmol/l rFIXa (human) […]
# TIPPS-(3-Am)Phe-iNip-OH was used as the inhibitor and the inhibitory effect was determined as an example for two substrates under optimal conditions (pH 8.5, 33% ethylene glycol).
# T1 sequence (P00740 227-461 limits assumed): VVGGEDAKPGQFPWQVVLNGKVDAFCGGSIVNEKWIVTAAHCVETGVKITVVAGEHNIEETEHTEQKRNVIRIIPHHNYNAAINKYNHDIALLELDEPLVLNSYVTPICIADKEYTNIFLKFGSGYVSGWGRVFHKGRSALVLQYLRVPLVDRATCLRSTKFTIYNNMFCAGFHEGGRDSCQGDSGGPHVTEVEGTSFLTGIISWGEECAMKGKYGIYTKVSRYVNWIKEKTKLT
# T1 sequence (P00740 131-226 limits assumed): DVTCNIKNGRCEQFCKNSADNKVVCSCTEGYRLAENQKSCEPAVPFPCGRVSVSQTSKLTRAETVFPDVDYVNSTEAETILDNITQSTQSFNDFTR
compound,measurement,setting,value
"CC(C)c1cc(C(C)C)c(S(=O)(=O)NC(Cc2cccc(C(=N)N)c2)C(=O)N2CCC(C(=O)O)CC2)c(C(C)C)c1 (centres unmarked) [TIPPS-(3-Am)Phe-iNip-OH, Nα-(2,4,6-triisopropylbenzenesulfonyl)-3-amidino-(D,L)-phenylalanine-isonipecotic acid]",Inhibition of the activity of factor IXa (in %),"[1]; inhibitor 4.1 μmol/l, pH 7.4, 4.1% ethanol, 0.57 μmol/l rFIXa",89.5%
same,Inhibition of the activity of factor IXa (in %),"[1]; inhibitor 4.1 μmol/l, pH 7.4, 33% ethylene glycol, 0.057 μmol/l rFIXa",86.9%
same,Inhibition of the activity of factor IXa (in %),"[1]; inhibitor 4.1 μmol/l, pH 8.5, 4.1% ethanol, […] rFIXa",90.6%
same,Inhibition of the activity of factor IXa (in %),"[1]; inhibitor 4.1 μmol/l, pH 8.5, 33% ethylene glycol, […] rFIXa",85.6%
same,Inhibition of the activity of factor IXa (in %),"[1]; inhibitor 8.2 μmol/l, pH 7.4, 4.1% ethanol, 0.57 μmol/l rFIXa",87.6%
same,Inhibition of the activity of factor IXa (in %),"[1]; inhibitor 8.2 μmol/l, pH 7.4, 33% ethylene glycol, 0.057 μmol/l rFIXa",79.4%
same,Inhibition of the activity of factor IXa (in %),"[1]; inhibitor 8.2 μmol/l, pH 8.5, 4.1% ethanol, […] rFIXa",85.2%
same,Inhibition of the activity of factor IXa (in %),"[1]; inhibitor 8.2 μmol/l, pH 8.5, 33% ethylene glycol, […] rFIXa",72.8%
same,Inhibition of the activity of factor IXa (in %),"[1]; inhibitor 16.3 μmol/l, pH 7.4, 4.1% ethanol, 0.57 μmol/l rFIXa",76.2%
same,Inhibition of the activity of factor IXa (in %),"[1]; inhibitor 16.3 μmol/l, pH 7.4, 33% ethylene glycol, 0.057 μmol/l rFIXa",61.7%
same,Inhibition of the activity of factor IXa (in %),"[1]; inhibitor 16.3 μmol/l, pH 8.5, 4.1% ethanol, […] rFIXa",74.8%
same,Inhibition of the activity of factor IXa (in %),"[1]; inhibitor 16.3 μmol/l, pH 8.5, 33% ethylene glycol, […] rFIXa",58.0%
same,Inhibition of the activity of factor IXa (in %),"[1]; inhibitor 40.8 μmol/l, pH 7.4, 4.1% ethanol, 0.57 μmol/l rFIXa",55.8%
same,Inhibition of the activity of factor IXa (in %),"[1]; inhibitor 40.8 μmol/l, pH 7.4, 33% ethylene glycol, 0.057 μmol/l rFIXa",38.9%
same,Inhibition of the activity of factor IXa (in %),"[1]; inhibitor 40.8 μmol/l, pH 8.5, 4.1% ethanol, […] rFIXa",55.2%
same,Inhibition of the activity of factor IXa (in %),"[1]; inhibitor 40.8 μmol/l, pH 8.5, 33% ethylene glycol, […] rFIXa",33.6%
same,Inhibition of the activity of factor IXa (in %),"[1]; inhibitor 81.6 μmol/l, pH 7.4, 4.1% ethanol, 0.57 μmol/l rFIXa",36.3%
same,Inhibition of the activity of factor IXa (in %),"[1]; inhibitor 81.6 μmol/l, pH 7.4, 33% ethylene glycol, 0.057 μmol/l rFIXa",21.2%
same,Inhibition of the activity of factor IXa (in %),"[1]; inhibitor 81.6 μmol/l, pH 8.5, 4.1% ethanol, […] rFIXa",35.3%
same,Inhibition of the activity of factor IXa (in %),"[1]; inhibitor 81.6 μmol/l, pH 8.5, 33% ethylene glycol, […] rFIXa",20.7%
same,Inhibition of the activity of factor IXa (in %),"[1]; inhibitor 163 μmol/l, pH 7.4, 4.1% ethanol, 0.57 μmol/l rFIXa",23.8%
same,Inhibition of the activity of factor IXa (in %),"[1]; inhibitor 163 μmol/l, pH 7.4, 33% ethylene glycol, 0.057 μmol/l rFIXa",15.0%
same,Inhibition of the activity of factor IXa (in %),"[1]; inhibitor 163 μmol/l, pH 8.5, 4.1% ethanol, […] rFIXa",20.8%
same,Inhibition of the activity of factor IXa (in %),"[1]; inhibitor 163 μmol/l, pH 8.5, 33% ethylene glycol, […] rFIXa",15.8%
same,1/V,"[2]; inhibitor 20.4 μmol/l, MeSO2-D-CHG-Gly-Arg-pNA 0.25 μmol/l, 0.057 μmol/l rFIXa",78.1 min/mA
same,1/V,"[2]; inhibitor 20.4 μmol/l, MeSO2-D-CHG-Gly-Arg-pNA 0.51 μmol/l, 0.057 μmol/l rFIXa",55.6 min/mA
same,1/V,"[2]; inhibitor 20.4 μmol/l, MeSO2-D-CHG-Gly-Arg-pNA 1.02 μmol/l, 0.057 μmol/l rFIXa",23.8 min/mA
same,1/V,"[2]; inhibitor 20.4 μmol/l, MeSO2-D-HHT-Gly-Arg-pNA 0.25 μmol/l, 0.14 μmol/l rFIXa",69.4 min/mA
same,1/V,"[2]; inhibitor 20.4 μmol/l, MeSO2-D-HHT-Gly-Arg-pNA 0.51 μmol/l, 0.14 μmol/l rFIXa",43.5 min/mA
same,1/V,"[2]; inhibitor 20.4 μmol/l, MeSO2-D-HHT-Gly-Arg-pNA 1.02 μmol/l, 0.14 μmol/l rFIXa",16.6 min/mA
same,1/V,"[2]; inhibitor 40.8 μmol/l, MeSO2-D-CHG-Gly-Arg-pNA 0.25 μmol/l, 0.057 μmol/l rFIXa",153 min/mA
same,1/V,"[2]; inhibitor 40.8 μmol/l, MeSO2-D-CHG-Gly-Arg-pNA 0.51 μmol/l, 0.057 μmol/l rFIXa",109 min/mA
same,1/V,"[2]; inhibitor 40.8 μmol/l, MeSO2-D-CHG-Gly-Arg-pNA 1.02 μmol/l, 0.057 μmol/l rFIXa",44.6 min/mA
same,1/V,"[2]; inhibitor 40.8 μmol/l, MeSO2-D-HHT-Gly-Arg-pNA 0.25 μmol/l, 0.14 μmol/l rFIXa",137 min/mA
same,1/V,"[2]; inhibitor 40.8 μmol/l, MeSO2-D-HHT-Gly-Arg-pNA 0.51 μmol/l, 0.14 μmol/l rFIXa",90.9 min/mA
same,1/V,"[2]; inhibitor 40.8 μmol/l, MeSO2-D-HHT-Gly-Arg-pNA 1.02 μmol/l, 0.14 μmol/l rFIXa",31.2 min/mA
same,Ki,"[2]; rFIXa, substrate MeSO2-D-CHG-Gly-Arg-pNA",16 µM
same,Ki,"[2]; recombinant FIXa, substrate MeSO2-D-HHT-Gly-Arg-pNA",12 µM
